What was measured:
[1] = tested on: CYPSE (Cyperus serotinus); experiment: Flooded paddy, preemergence weed control; assay type: in vivo, Rottb.; details: rate 0.1250 kg/ha, rated 3-4 weeks after treatment, 0-9 rating scale
Description: (§1) Results of herbicide evaluation are expressed on a rating scale (0-9). The scale is based upon a visual observation of plant stand, vigor, malformation, size, chlorosis and overall plant appearance as compared with a control.
Preemergence herbicidal activity under flooded paddy conditions is determined as follows: plant seeds or propagating organs are planted in the top 0.5 cm of silt loam soil in 32 oz. plastic containers with a diameter of 10.5 cm and no drainage holes. Water is added to these containers and maintained at 1.5 to 3 cm above the soil surface for the duration of the experiment. The test compounds are applied as aqueous/acetone mixtures 50/50 v/v pipetted directly into the flood water to give the equivalent of about 0.0080 to 0.1250 kg/ha of active ingredient. The treated containers are placed on greenhouse benches and cared for in accordance with conventional greenhouse procedures. Three to four weeks after treatment, the test is terminated and each container is examined and herbicidal effect rated according to the rating system provided in Example 87.

[2] = tested on: TRZAWR (Wheat, Winter, cv Riband); experiment: Postemergence herbicidal evaluation; assay type: in vivo, Triticum aestivum; details: rate 0.0620 kg/ha
Description: (§2) In the tests, seedling plants are grown in jiffy flats for about two weeks. […] After spraying, the plants are placed on greenhouse benches and are cared for in accordance with conventional greenhouse procedures. From four to five weeks after treatment, the seedling plants are examined and rated according to the rating system set forth below. Where more than one test is involved for a given compound, the data are averaged.
as §1

[3] = tested on: ECHCG (Echinochloa crus-galli); experiment: Postemergence herbicidal evaluation; assay type: in vivo, (L.) Beau; details: rate 0.0620 kg/ha
Description: as §2, §1

[4] = tested on: SETVI (Setaria viridis); experiment: Preemergence herbicidal evaluation; assay type: in vivo, (L.) Beau; details: Rate 0.2500 kg/ha; preemergence; rated 4-5 weeks after treatment
Description: as §1
(§3) The preemergence herbicidal activity of the test compounds of the present invention is exemplified by the following tests in which the seeds of a variety of monocotyledonous and dicotyledonous plants are separately mixed with potting soil and planted on top of approximately one inch of soil in separate pint cups. […] The treated cups are then placed on greenhouse benches, watered and cared for in accordance with conventional greenhouse procedures. From four to five weeks after treatment, the tests are terminated and each cup is examined and rated according to the rating system provided in Example 87. The plant species used and the compounds evaluated are the same as those shown in Example 87.

[5] = tested on: ECHCG (Echinochloa crus-galli); experiment: Preemergence herbicidal evaluation; assay type: in vivo, (L.) Beau; details: Rate 0.2500 kg/ha; preemergence; rated 4-5 weeks after treatment
Description: as §1, §3

[6] = tested on: SAGPY (Sagittaria pygmaea); experiment: Flooded paddy, preemergence weed control; assay type: in vivo, L.; details: rate 0.1250 kg/ha, rated 3-4 weeks after treatment, 0-9 rating scale
Description: as §1
(§4) Preemergence herbicidal activity under flooded paddy conditions is determined as follows: plant seeds or propagating organs are planted in the top 0.5 cm of silt loam soil in 32 oz. plastic containers with a diameter of 10.5 cm and no drainage holes. Water is added to these containers and maintained at 1.5 to 3 cm above the soil surface for the duration of the experiment. […] The treated containers are placed on greenhouse benches and cared for in accordance with conventional greenhouse procedures.

[7] = tested on: CYPIR (Cyperus iria); experiment: Flooded paddy, preemergence weed control; assay type: in vivo; details: rate 0.1250 kg/ha, rated 3-4 weeks after treatment, 0-9 rating scale
Description: as §1, §4

[8] = tested on: IPOHE (Ipomoea hederacea); experiment: Postemergence herbicidal evaluation; assay type: in vivo, (L.) Jacq.; details: rate 0.0620 kg/ha
Description: as §2, §1

[9] = tested on: ZEAMX (Corn, Field); experiment: Postemergence herbicidal evaluation; assay type: in vivo, Zea mays, L.; details: rate 0.0620 kg/ha
Description: as §2, §1

[10] = tested on: ABUTH (Abutilon theophrasti); experiment: Postemergence herbicidal evaluation; assay type: in vivo, Medic.; details: rate 0.0620 kg/ha
Description: as §2, §1

[11] = tested on: ECHORC (Echinochloa oryzoides); experiment: Flooded paddy, preemergence weed control; assay type: in vivo, Echinochloa oryzoides (Ard.) Fritsch.; details: rate 0.1250 kg/ha, rated 3-4 weeks after treatment, 0-9 rating scale
Description: as §1, §4

[12] = tested on: ZEAMX (Corn, Field); experiment: Preemergence herbicidal evaluation; assay type: in vivo, Zea mays, L.; details: Rate 0.2500 kg/ha; preemergence; rated 4-5 weeks after treatment
Description: as §1, §3

[13] = tested on: SETVI (Setaria viridis); experiment: Postemergence herbicidal evaluation; assay type: in vivo, (L.) Beau; details: rate 0.0620 kg/ha
Description: In the tests, seedling plants are grown in jiffy flats for about two weeks. The test compounds are dispersed in 50/50 acetone/water mixtures containing 0.5% TWEEN® 20, a polyoxyethylene sorbitan monolaurate surfactant of Atlas Chemical Industries, in sufficient quantities to provide the equivalent of about 0.0040 kg to 1.000 kg per hectare of active compound when applied to the plants through a spray nozzle operating at 40 psi for a predetermined time. After spraying, the plants are placed on greenhouse benches and are cared for in accordance with conventional greenhouse procedures. From four to five weeks after treatment, the seedling plants are examined and rated according to the rating system set forth below. Where more than one test is involved for a given compound, the data are averaged.
as §1

[14] = tested on: GLXMAW (Soybean, Williams); experiment: Preemergence herbicidal evaluation; assay type: in vivo, Glycine max, (L.) Merr. cv Williams; details: Rate 0.2500 kg/ha; preemergence; rated 4-5 weeks after treatment
Description: as §1, §3

[15] = tested on: AMBEL (Ambrosia artemisifolia); experiment: Preemergence herbicidal evaluation; assay type: in vivo, L.; details: Rate 0.2500 kg/ha; preemergence; rated 4-5 weeks after treatment
Description: as §1, §3

[16] = tested on: CASOB (Cassia obtusifolia); experiment: Preemergence herbicidal evaluation; assay type: in vivo, L.; details: Rate 0.2500 kg/ha; preemergence; rated 4-5 weeks after treatment
Description: as §1, §3

[17] = tested on: CHEAL (Chenopodium album); experiment: Preemergence herbicidal evaluation; assay type: in vivo, L.; details: Rate 0.2500 kg/ha; preemergence; rated 4-5 weeks after treatment
Description: as §1, §3

[18] = tested on: TRZAWR (Wheat, Winter, cv Riband); experiment: Preemergence herbicidal evaluation; assay type: in vivo, Triticum aestivum; details: Rate 0.2500 kg/ha; preemergence; rated 4-5 weeks after treatment
Description: as §1, §3

[19] = tested on: ORYSAT (Rice, Tebonnet); experiment: Postemergence herbicidal evaluation; assay type: in vivo, Oryza sativa, (L.) Tebonnet; details: rate 0.0620 kg/ha
Description: as §2, §1

[20] = tested on: IPOHE (Ipomoea hederacea); experiment: Preemergence herbicidal evaluation; assay type: in vivo, (L.) Jacq.; details: Rate 0.2500 kg/ha; preemergence; rated 4-5 weeks after treatment
Description: as §1, §3

[21] = tested on: ORYSAT (Rice, Tebonnet); experiment: Preemergence herbicidal evaluation; assay type: in vivo, Oryza sativa, (L.) Tebonnet; details: Rate 0.2500 kg/ha; preemergence; rated 4-5 weeks after treatment
Description: as §1, §3

[22] = tested on: GLXMAW (Soybean, Williams); experiment: Postemergence herbicidal evaluation; assay type: in vivo, Glycine max, (L.) Merr. cv Williams; details: rate 0.0620 kg/ha
Description: as §2, §1

[23] = tested on: AMBEL (Ambrosia artemisifolia); experiment: Postemergence herbicidal evaluation; assay type: in vivo, L.; details: rate 0.0620 kg/ha
Description: as §2, §1

[24] = tested on: CASOB (Cassia obtusifolia); experiment: Postemergence herbicidal evaluation; assay type: in vivo, L.; details: rate 0.0620 kg/ha
Description: as §2, §1

[25] = tested on: GALAP (Galium aparine); experiment: Preemergence herbicidal evaluation; assay type: in vivo; details: Rate 0.2500 kg/ha; preemergence; rated 4-5 weeks after treatment
Description: as §1, §3

[26] = tested on: ABUTH (Abutilon theophrasti); experiment: Preemergence herbicidal evaluation; assay type: in vivo, Medic.; details: Rate 0.2500 kg/ha; preemergence; rated 4-5 weeks after treatment
Description: as §1, §3

[27] = tested on: ORYSAT (Rice, Tebonnet); experiment: Flooded paddy, post-transplant rice tolerance; assay type: in vivo, Oryza sativa, (L.) Tebonnet; details: in vivo
Description: as §1
The tolerance of transplanted rice to post-transplanted herbicide application is determined as follows: two ten-day-old rice seedlings (cv. Tebonnet) are transplanted into silt loam soil in 32 oz. plastic containers with a diameter of 10.5 cm and no drainage holes. After transplanting, the containers are flooded and the water level is maintained at 1.5 to 3 cm above the soil surface. […] The treated containers are placed on greenhouse benches, watered such that the water level is maintained as stated above, and cared for in accordance with conventional greenhouse procedures.

[28] = tested on: GALAP (Galium aparine); experiment: Postemergence herbicidal evaluation; assay type: in vivo; details: rate 0.0620 kg/ha
Description: as §2, §1

**Q.** How did the “herbicidal rating, CYPSE” value [1] turn out when `Cn1c(C(F)(F)F)cc(=O)n(-c2ccc3c(c2)C(c2cccc[n+]2[O-])=NS3(=O)=O)c1=O` [Compound 15, 1-methyl-3-[3-(2-pyridyl)-1,2-benzisothiazol-5-yl]-6-(trifluoromethyl)uracil N′,S,S-trioxide] was run?
**A.** 0.0

**Q.** What about the “Postemergence herbicidal rating, TRZAWR” value [2] of the same compound?
**A.** 3.5

**Q.** What about the “Postemergence herbicidal rating, ECHCG” value [3] of the same compound?
**A.** 1.0

**Q.** And the “SETVI preemergence herbicidal rating” value [4]?
**A.** 5.0

**Q.** What about the “ECHCG preemergence herbicidal rating” value [5] of the same compound?
**A.** 5.0

**Q.** What about the “herbicidal rating, SAGPY” value [6] of the same compound?
**A.** 0.0

**Q.** And the “herbicidal rating, CYPIR” value [7]?
**A.** 0.0

**Q.** And the “Postemergence herbicidal rating, IPOHE” value [8]?
**A.** 9.0

**Q.** What about the “Postemergence herbicidal rating, ZEAMX” value [9] of the same compound?
**A.** 5.0

**Q.** And the “Postemergence herbicidal rating, ABUTH” value [10]?
**A.** 6.0

**Q.** And the “herbicidal rating, ECHORC” value [11]?
**A.** 0.0

**Q.** What about the “ZEAMX preemergence herbicidal rating” value [12] of the same compound?
**A.** 1.0

**Q.** And the “Postemergence herbicidal rating, SETVI” value [13]?
**A.** 1.0

**Q.** What about the “GLXMAW preemergence herbicidal rating” value [14] of the same compound?
**A.** 2.0

**Q.** And the “AMBEL preemergence herbicidal rating” value [15]?
**A.** 7.0

**Q.** What about the “CASOB preemergence herbicidal rating” value [16] of the same compound?
**A.** 0.0

**Q.** What about the “CHEAL preemergence herbicidal rating” value [17] of the same compound?
**A.** 9.0

**Q.** And the “TRZAWR preemergence herbicidal rating” value [18]?
**A.** 3.0

**Q.** And the “Postemergence herbicidal rating, ORYSAT” value [19]?
**A.** 3.5

**Q.** What about the “IPOHE preemergence herbicidal rating” value [20] of the same compound?
**A.** 6.0

**Q.** What about the “ORYSAT preemergence herbicidal rating” value [21] of the same compound?
**A.** 3.0

**Q.** What about the “Postemergence herbicidal rating, GLXMAW” value [22] of the same compound?
**A.** 5.0

**Q.** What about the “Postemergence herbicidal rating, AMBEL” value [23] of the same compound?
**A.** 9.0

**Q.** And the “Postemergence herbicidal rating, CASOB” value [24]?
**A.** 1.0

**Q.** What about the “GALAP preemergence herbicidal rating” value [25] of the same compound?
**A.** 0.0

**Q.** What about the “ABUTH preemergence herbicidal rating” value [26] of the same compound?
**A.** 7.0

**Q.** What about the “herbicidal rating, ORYSAT (rice tolerance)” value [27] of the same compound?
**A.** 0.0

**Q.** What about the “Postemergence herbicidal rating, GALAP” value [28] of the same compound?
**A.** 1.0

Source: patent US6706663B2, “Herbicidal 3-heterocyclic substituted benzisothiazole and benzisoxazole compounds” (Wyeth, priority 2000, dated 2004)
